The text below walks through data of US11400084B2 (BioTheryX, Inc., priority 2018, dated 2022).

What all share (format): cell-based
The subject of one assay is MOLM-13 cells. Nature of the assay: MOLM-13 cell viability assay (CellTiter-Glo 2, 3 days, 2500 cells/well). The conditions noted are these: Homo sapiens, MOLM-13, 72 h, percentage of DMSO control. On the procedure: MOLM-13 cells were cultured in RPMI 1640 media supplemented with 10% fetal bovine serum, streptomycin and penicillin, and were plated in white walled 96-well plates at 2500 cells/well. Cells were incubated in DMSO (control) or the indicated compound for 3 days at 37° C. and 5% CO2. Following the incubation period, 100 μL of CellTiterGlow2 (CTG2) reagent (CellTiter-Glo®2 Luminescent Cell Viability Assay, Promega (Madison, Wis.)) was added to each well. Following a 10 minutes incubation with shaking, luminescence was measured using the EnVision Multimode plate reader.
The MOLM-13 cell viability values, measured as percentages of the DMSO control, are reported in Table 8 as “A”, “B”, “C”, or “D.” “A” represents a % viability value of less than 40% (value<40%). “B” represents a % viability value of equal to or more than 40% and less than 60% (40%≤value<60%). “C” represents a % viability value of equal to or more than 60% and less than 90% (60%≤value<90%). “D” represents a % viability value of equal or more than 90% (value≥90%).
Background: Cellular ATP, detected with luciferase, serves as a proxy for viable cell number.

In the next assay the test system is IL-2. Description: IL-2 fold-change assay, anti-CD3 stimulated PBMCs, Mesoscale. The conditions noted are these: Homo sapiens, PBMC, 24 h, fold difference from the DMSO control. On the procedure:
For the IL-2 analysis, 96 well plates were precoated with 1 μg/mL anti-human CD3 antibody (OKT3, eBioscience Inc., San Diego, Calif.). After washing with PBS, the indicated compound was added (50 μL/well) followed by PBMCs diluted at 3-4 million cells/mL (150 μL/well). Plates were incubated for 24 h and the supernatants collected for Mesoscale IL-2 analysis. IL-2 activity is measured as fold difference from the DMSO control.
In Table 7, the fold-change values are reported as “A”, “B”, “C”, or “D”. “A” represents a fold-change value of equal to or less than 1 (value≤1); “B” represents a fold-change value of more than 1 and equal to or less than 2 (1<value≤2); “C” represents a fold-change value of more than 2 and equal to or less than 3 (2<value≤3); and “D” represents a fold-change value of more than 3 (value>3).

In the next assay the target is T1, GSPT1 (Homo sapiens, UniProt P15170+Q96SW2).
T1 construct: whole cell protein extracts were separated on 4-12% SDS-polyacrylamide gels; endogenous in cells; host or cells: MV-4-11
T1 sequence (P15170 whole entry): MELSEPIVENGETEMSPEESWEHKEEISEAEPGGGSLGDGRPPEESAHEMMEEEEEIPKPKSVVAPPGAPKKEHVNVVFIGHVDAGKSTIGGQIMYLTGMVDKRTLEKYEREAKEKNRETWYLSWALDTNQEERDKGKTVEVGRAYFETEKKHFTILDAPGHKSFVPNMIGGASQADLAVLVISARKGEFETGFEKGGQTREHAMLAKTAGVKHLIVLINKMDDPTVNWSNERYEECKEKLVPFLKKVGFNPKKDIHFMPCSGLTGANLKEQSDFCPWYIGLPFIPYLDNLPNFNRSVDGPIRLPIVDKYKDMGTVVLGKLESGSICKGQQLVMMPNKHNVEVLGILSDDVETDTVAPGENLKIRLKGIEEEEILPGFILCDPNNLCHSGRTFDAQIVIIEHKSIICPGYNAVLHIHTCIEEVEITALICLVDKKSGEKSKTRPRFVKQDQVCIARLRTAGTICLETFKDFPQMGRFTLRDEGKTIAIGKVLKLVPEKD
T1 sequence (Q96SW2 whole entry): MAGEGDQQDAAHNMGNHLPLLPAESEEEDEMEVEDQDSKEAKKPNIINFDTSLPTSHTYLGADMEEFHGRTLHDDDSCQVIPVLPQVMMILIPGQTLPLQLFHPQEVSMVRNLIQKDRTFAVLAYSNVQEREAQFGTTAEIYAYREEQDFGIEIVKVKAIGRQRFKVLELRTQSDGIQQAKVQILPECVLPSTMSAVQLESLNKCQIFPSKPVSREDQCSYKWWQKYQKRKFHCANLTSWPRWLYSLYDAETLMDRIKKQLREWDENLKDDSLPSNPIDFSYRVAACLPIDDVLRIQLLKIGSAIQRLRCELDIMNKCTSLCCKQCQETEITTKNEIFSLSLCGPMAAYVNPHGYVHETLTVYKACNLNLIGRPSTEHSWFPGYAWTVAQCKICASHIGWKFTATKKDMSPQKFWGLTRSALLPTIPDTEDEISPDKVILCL
T1 sequence (Q16531 whole entry partner): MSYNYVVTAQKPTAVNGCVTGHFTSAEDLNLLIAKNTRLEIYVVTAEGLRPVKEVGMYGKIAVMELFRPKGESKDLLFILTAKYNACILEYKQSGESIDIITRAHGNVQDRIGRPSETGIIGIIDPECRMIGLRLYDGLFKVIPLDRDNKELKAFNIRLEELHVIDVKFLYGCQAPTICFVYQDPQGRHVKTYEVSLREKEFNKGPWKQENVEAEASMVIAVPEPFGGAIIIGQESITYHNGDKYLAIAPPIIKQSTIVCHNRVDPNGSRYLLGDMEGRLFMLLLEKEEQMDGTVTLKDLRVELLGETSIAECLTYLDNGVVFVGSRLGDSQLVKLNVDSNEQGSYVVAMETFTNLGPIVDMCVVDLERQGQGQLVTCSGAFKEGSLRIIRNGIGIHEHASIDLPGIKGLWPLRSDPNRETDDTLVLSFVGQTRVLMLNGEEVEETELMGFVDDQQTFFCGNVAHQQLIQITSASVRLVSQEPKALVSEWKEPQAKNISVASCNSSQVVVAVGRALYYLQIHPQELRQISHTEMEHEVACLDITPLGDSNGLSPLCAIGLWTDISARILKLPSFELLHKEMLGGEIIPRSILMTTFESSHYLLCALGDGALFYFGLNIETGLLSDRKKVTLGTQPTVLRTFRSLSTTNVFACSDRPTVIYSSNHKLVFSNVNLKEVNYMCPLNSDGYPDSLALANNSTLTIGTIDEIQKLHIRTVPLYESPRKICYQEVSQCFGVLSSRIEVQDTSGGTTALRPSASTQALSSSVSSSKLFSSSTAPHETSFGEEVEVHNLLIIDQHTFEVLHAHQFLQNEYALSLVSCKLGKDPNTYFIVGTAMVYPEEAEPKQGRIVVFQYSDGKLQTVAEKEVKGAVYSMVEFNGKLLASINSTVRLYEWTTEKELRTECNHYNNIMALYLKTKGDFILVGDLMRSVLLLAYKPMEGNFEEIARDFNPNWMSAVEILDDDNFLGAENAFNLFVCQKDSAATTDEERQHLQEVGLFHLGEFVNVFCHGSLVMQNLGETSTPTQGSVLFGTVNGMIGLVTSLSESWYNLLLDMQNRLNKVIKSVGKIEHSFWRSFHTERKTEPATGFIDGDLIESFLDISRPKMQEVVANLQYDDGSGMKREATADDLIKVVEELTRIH
Nature of the assay: Western blot GSPT1 degradation assay in MV-4-11 cells. The conditions noted are these: 1 μM, MV-4-11 cells, 6-8 hours. The method, then: (§1) MV-4-11 cells were grown in RPMI 1640 media supplemented with 10% fetal bovine serum, streptomycin and penicillin.
(§2) Cells were cultured at approximately 10^6 cells per mL and incubated in DMSO or the indicated compound for 6-8 hours. Whole cell extracts were prepared using RIPA buffer according to manufacturer's protocol (Pierce). Briefly, 3×10^6 cells were washed once in PBS, the cell pellets were resuspended in RIPA buffer and allowed to incubate for 15 minutes on ice. Cells debris was removed by centrifugation and the cleared whole cell lysates were transferred to new tubes for further analysis.
(§3) For Western blot analysis, whole cell protein extracts were separated on 4-12% SDS-polyacrylamide gels, transferred to nitrocellulose and probed with the indicated primary antibodies. Membranes were subsequently washed and probed with the appropriate IRDye secondary antibodies (LI-COR). The signal was detected using the Odyssey Imaging System (LI-COR).
(§4) The following antibodies were used in these studies: Anti-eRF3/GSPT1: Abcam, ab126090 (Cambridge, Mass.); Anti-Ikaros: Abcam, ab191394 (Cambridge, Mass.); Anti-CK1α: Abcam, ab108296 (Cambridge, Mass.); β-actin (8H10D10) mouse monoclonal antibody: Cell Signaling Technology, #3700 (Danvers, Mass.); IRDye 680RD Goat anti-rabbit antibody: LI-COR, 926-68071 (Lincoln, Nebr.); IRDye 800CW Goat anti-mouse antibody: LI-COR, 926-32210 (Lincoln, Nebr.).
(§5) In each of Tables 1-3, the % degradation values are reported as “A”, “B”, “C”, or “D.” “A” represents a % degradation value of less than 25% (value<25%); “B” represents a % degradation value of equal to or more than 25% and less than 50% (25%≤value<50%); “C” represents a % degradation value of equal to or more than 50% and less than 75% (50%≤value<75%); and “D” represents a % degradation value of equal to or more than 75% (value≥75%).
A general note: A western blot detects proteins with antibodies after separation by electrophoresis.

In another assay the target is T2, IKAROS (Homo sapiens, UniProt Q13422+Q96SW2).
T2 construct: endogenous in cells; host or cells: MV-4-11
T2 sequence (Q13422 whole entry): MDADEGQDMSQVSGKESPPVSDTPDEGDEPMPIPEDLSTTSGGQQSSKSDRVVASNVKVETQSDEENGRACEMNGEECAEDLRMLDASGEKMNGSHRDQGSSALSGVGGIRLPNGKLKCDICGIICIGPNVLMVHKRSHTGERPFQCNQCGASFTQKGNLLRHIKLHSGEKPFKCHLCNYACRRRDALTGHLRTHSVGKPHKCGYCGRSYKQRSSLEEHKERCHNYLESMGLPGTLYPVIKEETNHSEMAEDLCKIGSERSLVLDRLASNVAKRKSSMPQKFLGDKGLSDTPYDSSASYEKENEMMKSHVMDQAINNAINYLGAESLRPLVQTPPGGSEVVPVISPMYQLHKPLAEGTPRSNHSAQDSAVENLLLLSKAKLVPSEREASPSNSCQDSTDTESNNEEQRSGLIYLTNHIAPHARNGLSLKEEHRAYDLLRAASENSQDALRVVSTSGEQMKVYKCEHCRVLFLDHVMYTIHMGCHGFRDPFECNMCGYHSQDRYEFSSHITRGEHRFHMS
T2 sequence (Q96SW2 whole entry): as the sequence (Q96SW2 whole entry) above
T2 sequence (Q16531 whole entry partner): as the sequence (Q16531 whole entry partner) above
Nature of the assay: Western blot IKAROS degradation assay in MV-4-11 cells. The conditions noted are these: 6-8 hours. The method, then: as §1, §2, §3, §4, §5

For a further assay, the system named is IL-1β. Nature of the assay: IL-1β inhibition assay, LPS-induced PBMCs or CD14+ monocytes, Meso Scale. The conditions noted are these: 100 ng/mL LPS 18-24 h. The method, then: (§6) Either frozen primary blood mononuclear cells (PBMCs) or frozen CD14+ mobilized peripheral blood monocytes were purchased from AllCells (PB003F, Normal Peripheral Blood MNC (Alameda, Calif.)). Cells were quick thawed, washed 1-time with RPMI-1640 (10% FBS/1% Pen-Strep) and plated in 96 well plates at 200,000 cells per well. Cells were pretreated with DMSO only or with the indicated compound for 1 h and then induced with 100 ng/mL lipopolysaccharide (LPS) for 18-24 h. The supernatant was analyzed for IL-1β, IL-6, and TNFα, using Meso Scale assay according to manufacturer's protocol. The negative control wells were treated with DMSO.

In the next assay the test system is TNFα. Nature of the assay: TNF-α inhibition assay, LPS-induced PBMCs or CD14+ monocytes, Meso Scale. The conditions noted are these: 100 ng/mL LPS 18-24 h. On the procedure: as §6

In the assay with MOLM-13 cells, `Cc1ccc(NCC(=O)NCc2scc3c2CN(C2CCC(=O)NC2=O)C3=O)cc1Cl` (stereo not drawn) [Compound 2, 2-((3-chloro-4-methylphenyl)amino)-N-((5-(2,6-dioxopiperidin-3-yl)-4-oxo-5,6-dihydro-4H-thieno[3,4-c]pyrrol-1-yl)methyl)acetamide] came in with a viability at 1 µM greater than 90%. Besides, the fold induction at 1 µM in the assay on IL-2 lay in the range of 1 to 2. The “GSPT1 % Degradation at 1 μM” value on GSPT1 was “C (a % degradation value of equal to or more than 50% and less than 75% (50%≤value<75%))”. For the same molecule, the “IKAROS % Degradation at 1 μM” value at IKAROS is recorded as “D (a % degradation value of equal to or more than 75% (value≥75%))”. Also, the inhibition at 1 µM with IL-1β is greater than 75%; in the assay with TNFα it was 50 to 75%.
On to `Cc1ccc(NCC(=O)NCc2cc3c(s2)CN(C2CCC(=O)NC2=O)C3=O)cc1Cl` (stereo not drawn) [Compound 6, 2-((3-chloro-4-methylphenyl)amino)-N-((5-(2,6-dioxopiperidin-3-yl)-4-oxo-5,6-dihydro-4H-thieno[2,3-c]pyrrol-2-yl)methyl)acetamide], for which the inhibition at 1 µM in the assay on IL-1β and in the assay with TNFα was less than 30% throughout.
In the assay on IL-2, `Cc1ccc(NC(C)C(=O)NCc2scc3c2CN(C2CCC(=O)NC2=O)C3=O)cc1Cl` (stereo not drawn) [Compound 7, 2-((3-chloro-4-methylphenyl)amino)-N-((5-(2,6-dioxopiperidin-3-yl)-4-oxo-5,6-dihydro-4H-thieno[3,4-c]pyrrol-1-yl)methyl)propanamide] gave a fold induction at 1 µM of 2 to 3. Moreover, the inhibition at 1 µM with IL-1β and with TNFα was greater than 75% in each case.
In the assay with IL-2, `Cc1ccc(NCC(=O)NCc2ccc3c(c2)CN([C@H]2CCCC(=O)NC2=O)C3=O)cc1Cl` [Compound 12] showed a fold induction at 1 µM of 1 to 2. Besides, the “GSPT1 % Degradation at 1 μM” value on GSPT1 was “C (a % degradation value of equal to or more than 50% and less than 75% (50%≤value<75%))”. Further, the inhibition at 1 µM in the assay on IL-1β and in the assay on TNFα was less than 30% in each case.
With `O=C(CNc1ccc(N2CCOCC2)c(Cl)c1)NCc1ccc2c(c1)CN(C1CCC(=O)NC1=O)C2=O` (stereo not drawn) [Compound 22, 2-((3-chloro-4-morpholinophenyl)amino)-N-((2-(2,6-dioxopiperidin-3-yl)-1-oxoisoindolin-5-yl)methyl)acetamide], the fold induction at 1 µM in the assay on IL-2 lay in the range of 2 to 3. Also, the inhibition at 1 µM in the assay on IL-1β and in the assay on TNFα was 50 to 75% each time.
Regarding `O=C(CNc1cccc(CN2CCOCC2)c1)NCc1scc2c1CN(C1CCC(=O)NC1=O)C2=O` (stereo not drawn) [Compound 11, N-((5-(2,6-dioxopiperidin-3-yl)-4-oxo-5,6-dihydro-4H-thieno[3,4-c]pyrrol-1-yl)methyl)-2-((3-(morpholinomethyl)phenyl)amino)acetamide], in the assay on MOLM-13 cells, the viability at 1 µM is less than 40%. For the same molecule, in the assay on IL-2, the fold induction at 1 µM lay in the range of 1 to 2. The “GSPT1 % Degradation at 1 μM” value at GSPT1 is “B (a % degradation value of equal to or more than 25% and less than 50% (25%≤value<50%))”. Also, the “IKAROS % Degradation at 1 μM” value at IKAROS is “B (a % degradation value of equal to or more than 25% and less than 50% (25%≤value<50%))”. For the same molecule, the inhibition at 1 µM with IL-1β and in the assay on TNFα was 30 to 50% throughout.
In turn, `CN(C)c1ccc(NCC(=O)NCc2scc3c2CN(C2CCC(=O)NC2=O)C3=O)cc1Cl` (stereo not drawn) [Compound 8, 2-((3-chloro-4-(dimethylamino)phenyl)amino)-N-((5-(2,6-dioxopiperidin-3-yl)-4-oxo-5,6-dihydro-4H-thieno[3,4-c]pyrrol-1-yl)methyl)acetamide] showed a fold induction at 1 µM with IL-2 of 1 to 2. Further, the inhibition at 1 µM with IL-1β and in the assay with TNFα was greater than 75% in each case.
`Cc1ccc(NCC(=O)NCc2ccc3c(c2)C(=O)N(C2CCC(=O)NC2=O)C3=O)cc1Cl` (stereo not drawn) [Compound 19, 2-((3-chloro-4-methylphenyl)amino)-N-((2-(2,6-dioxopiperidin-3-yl)-1,3-dioxoisoindolin-5-yl)methyl)acetamide] had a viability at 1 µM in the assay with MOLM-13 cells of 60 to 90%. For the same molecule, the fold induction at 1 µM with IL-2 is no more than 1. The “GSPT1 % Degradation at 1 μM” value at GSPT1 is reported as “D (a % degradation value of equal to or more than 75% (value≥75%))”. Besides, at IKAROS, the “IKAROS % Degradation at 1 μM” value is “B (a % degradation value of equal to or more than 25% and less than 50% (25%≤value<50%))”. The inhibition at 1 µM in the assay with TNFα is 30 to 50%.
`Cc1ccc(NC(C)C(=O)NCc2ccc3c(c2)CN(C2CCC(=O)NC2=O)C3=O)cc1Cl` (stereo not drawn) [Compound 15, 2-((3-chloro-4-methylphenyl)amino)-N-((2-(2,6-dioxopiperidin-3-yl)-1-oxoisoindolin-5-yl)methyl)propanamide] yielded a fold induction at 1 µM in the assay with IL-2 of 1 to 2.
For the molecule `Cc1ccc(NCC(=O)NCc2scc3c2CN(C2CCC(=O)NC2=O)C3=O)cc1N(C)C` (stereo not drawn) [Compound 4, 2-((3-(dimethylamino)-4-methylphenyl)amino)-N-((5-(2,6-dioxopiperidin-3-yl)-4-oxo-5,6-dihydro-4H-thieno[3,4-c]pyrrol-1-yl)methyl)acetamide], in the assay with MOLM-13 cells, the viability at 1 µM is greater than 90%. This molecule had a fold induction at 1 µM in the assay on IL-2 of 2 to 3. The “GSPT1 % Degradation at 1 μM” value at GSPT1 was “B (a % degradation value of equal to or more than 25% and less than 50% (25%≤value<50%))”. Further, at IKAROS, the “IKAROS % Degradation at 1 μM” value is “B (a % degradation value of equal to or more than 25% and less than 50% (25%≤value<50%))”. Besides, the inhibition at 1 µM in the assay with IL-1β and with TNFα was 50 to 75% in each case.
As to `Cc1cc(NCC(=O)NCc2ccc3c(c2)CN(C2CCC(=O)NC2=O)C3=O)ccc1N1CCOCC1` (stereo not drawn) [Compound 23, N-((2-(2,6-dioxopiperidin-3-yl)-1-oxoisoindolin-5-yl)methyl)-2-((3-methyl-4-morpholinophenyl)amino)acetamide], in the assay on MOLM-13 cells, the viability at 1 µM fell in the range of 40 to 60%. For the same molecule, the fold induction at 1 µM in the assay with IL-2 was 1 to 2. On GSPT1, the “GSPT1 % Degradation at 1 μM” value was “B (a % degradation value of equal to or more than 25% and less than 50% (25%≤value<50%))”. Moreover, the “IKAROS % Degradation at 1 μM” value on IKAROS is “C (a % degradation value of equal to or more than 50% and less than 75% (50%≤value<75%))”. For the same molecule, the inhibition at 1 µM in the assay on IL-1β and with TNFα was 30 to 50% each time.
Take `O=C(CNc1ccc(CN2CCOCC2)cc1)NCc1scc2c1CN(C1CCC(=O)NC1=O)C2=O` (stereo not drawn) [Compound 9, N-((5-(2,6-dioxopiperidin-3-yl)-4-oxo-5,6-dihydro-4H-thieno[3,4-c]pyrrol-1-yl)methyl)-2-((4-(morpholinomethyl)phenyl)amino)acetamide]: in the assay on IL-2, the fold induction at 1 µM was 1 to 2. Also, the inhibition at 1 µM in the assay on IL-1β and with TNFα was 50 to 75% each time.

Usually viability stands for the share of living cells, or the viability signal relative to a control. High values mean less harm to the cells, low ones more harm to the cells. For orientation: fold induction means the signal under treatment as a multiple of the control signal. The low end stands for little rise in signal, the high end for a large rise in signal. One may read the inhibition as the relative decrease from the control value, in per cent. High values mean a strong effect, low ones a weak effect.
